According to patent US20250084063A1 (Incyte Corporation, priority 2023, published 2025):

Tests used:
Assay type in all cases: cell-based
MRGPRX2 [1] = target: T1, MRGPRX2 (Homo sapiens, UniProt Q96LB1); test: MRGPRX2 β-Arrestin assay; design: host or cells: PathHunter CHO-K1; details: PathHunter CHO-K1 MRGPRX2 β-Arrestin cell line; agonist Cortistatin 14 0.25 μM
T1 sequence (Q96LB1 1-330): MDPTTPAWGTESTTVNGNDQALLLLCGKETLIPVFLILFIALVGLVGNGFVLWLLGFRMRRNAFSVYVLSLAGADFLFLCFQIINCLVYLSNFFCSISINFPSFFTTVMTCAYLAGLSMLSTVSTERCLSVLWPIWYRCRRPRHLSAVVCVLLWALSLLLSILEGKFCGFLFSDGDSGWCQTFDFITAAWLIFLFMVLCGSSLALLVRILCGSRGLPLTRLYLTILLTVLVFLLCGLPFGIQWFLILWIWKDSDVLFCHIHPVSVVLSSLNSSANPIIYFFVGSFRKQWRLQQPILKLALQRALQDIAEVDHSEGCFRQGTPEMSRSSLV
Procedure, shortened: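 PathHunter CHO-K1 cells expressing ProLink-tagged MRGPRX2 and enzyme-acceptor-tagged β-arrestin were preincubated with serially diluted compound 1 h at 37 °C, then stimulated with 0.25 μM cortistatin 14 (final) for 90 min. β-arrestin recruitment was read by luminescence; IC50 from 3- or 4-parameter Hill fits normalised to DMSO and reference antagonist controls.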

MRGPRX2 [2] = target: T1, MRGPRX2; test: MRGPRX2 IP1 HTRF assay; design: host or cells: CHO-K1; details: CHO-K1 cells stably expressing human MRGPRX2; IP1 accumulation, agonist Cortistatin 14 1 μM
MRGPRX2 [3] = target: T1, MRGPRX2; test: MRGPRX2 FLIPR calcium mobilization assay; design: host or cells: CHO-K1; details: CHO-K1 cells stably expressing human MRGPRX2; Ca2+ release, agonist Cortistatin-14 at EC80
Procedure, shortened: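 CHO-K1 cells stably expressing human MRGPRX2, loaded with Calcium 6 dye, pre-incubated 30 min at room temperature with test compound in HBSS/20 mM HEPES pH 7.4. Then challenged with Cortistatin-14 at EC80; baseline-adjusted peak fluorescence over 110 s fitted to a Hill equation for IC50.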

IC50 (MRGPRX2 [1])	IC50 (MRGPRX2 [2])	IC50 (MRGPRX2 [3])	Structure (SMILES)
0.1 to 100 nM	0.1 to 100 nM	0.1 to 100 nM	NC(=O)N1CC(CNc2cc(C(F)(F)F)nc3ccc(Cl)cc23)(c2ccc(F)cn2)C1 [Example 47, 3-(((6-Chloro-2-(trifluoromethyl)quinolin-4-yl)amino)methyl)-3-(5-fluoropyridin-2-yl)azetidine-1-carboxamide]
0.1 to 100 nM	0.1 to 100 nM	0.1 to 100 nM	O=C(NC1CC(O)C1)N1CC(CNc2cc(C(F)(F)F)nc3ccc(Cl)cc23)(n2cc(F)cn2)C1 (stereo not drawn) [Example 106, 3-(((6-Chloro-2-(trifluoromethyl)quinolin-4-yl)amino)methyl)-3-(4-fluoro-1H-pyrazol-1-yl)-N-(3-hydroxycyclobutyl)azetidine-1-carboxamide]
0.1 to 100 nM	100 to 1000 nM	0.1 to 100 nM	Cn1ncc2ccc(C3(CNc4cc(C(F)(F)F)nc5ccc(Cl)cc45)CN(S(N)(=O)=O)C3)cc21 [Example 84, 3-(((6-Chloro-2-(trifluoromethyl)quinolin-4-yl)amino)methyl)-3-(1-methyl-1H-indazol-6-yl)azetidine-1-sulfonamide]
0.1 to 100 nM	0.1 to 100 nM	0.1 to 100 nM	O=C1NC(=O)C2(CC(CNc3cc(C(F)(F)F)nc4ccc(Cl)cc34)(c3ccccc3)C2)N1 (stereo not drawn) [Example 108, 2-(((6-Chloro-2-(trifluoromethyl)quinolin-4-yl)amino)methyl)-2-phenyl-5,7-diazaspiro[3.4]octane-6,8-dione]
0.1 to 100 nM	100 to 1000 nM	0.1 to 100 nM	Cc1csc(C2(CNc3cc(C(F)(F)F)nc4ccc(Cl)cc34)CN(S(N)(=O)=O)C2)n1 [Example 81, 3-(((6-Chloro-2-(trifluoromethyl)quinolin-4-yl)amino)methyl)-3-(4-methylthiazol-2-yl)azetidine-1-sulfonamide]
0.1 to 100 nM	0.1 to 100 nM	0.1 to 100 nM	CNC(=O)N1CC(CNc2cc(C(F)(F)F)nc3ccc(Cl)cc23)(n2cc(Br)cn2)C1 [Example 99, 3-(4-Bromo-1H-pyrazol-1-yl)-3-(((6-chloro-2-(trifluoromethyl)quinolin-4-yl)amino)methyl)-N-methylazetidine-1-carboxamide]
100 to 1000 nM	100 to 1000 nM	0.1 to 100 nM	CNC(=O)N1CC(CNc2cc(C(F)(F)F)nc3ccc(Cl)cc23)(c2ccc3cnn(C)c3c2)C1 [Example 83]
100 to 1000 nM	100 to 1000 nM	0.1 to 100 nM	NC(=O)N1CC(CNc2cc(C(F)(F)F)nc3cc(F)ccc23)(c2ccc(F)cn2)C1 [Example 59, 3-(((7-Fluoro-2-(trifluoromethyl)quinolin-4-yl)amino)methyl)-3-(5-fluoropyridin-2-yl)azetidine-1-carboxamide]
0.1 to 100 nM	0.1 to 100 nM	0.1 to 100 nM	CNC(=O)N1CC(CNc2cc(C(F)(F)F)nc3ccc(Cl)cc23)(n2cccn2)C1 [Example 52, 3-(((6-Chloro-2-(trifluoromethyl)quinolin-4-yl)amino)methyl)-N-methyl-3-(1H-pyrazol-1-yl)azetidine-1-carboxamide]

More lines, now with the values behind:

Structure (SMILES)	IC50 (MRGPRX2 [1])	IC50 (MRGPRX2 [2])	IC50 (MRGPRX2 [3])
CC(C)NC(=O)N1CC(CNc2cc(C(F)(F)F)nc3ccc(Cl)cc23)(n2cc(F)cn2)C1 [Example 21, 3-(((6-Chloro-2-(trifluoromethyl)quinolin-4-yl)amino)methyl)-3-(4-fluoro-1H-pyrazol-1-yl)-N-isopropylazetidine-1-carboxamide]	0.1 to 100 nM	0.1 to 100 nM	0.1 to 100 nM
O=C(NC1CC(F)(F)C1)N1CC(CNc2cc(C(F)(F)F)nc3ccc(Cl)cc23)(c2ccc(F)cn2)C1 [Example 19, 3-(((6-Chloro-2-(trifluoromethyl)quinolin-4-yl)amino)methyl)-N-(3,3-difluorocyclobutyl)-3-(5-fluoropyridin-2-yl)azetidine-1-carboxamide]	0.1 to 100 nM	0.1 to 100 nM	0.1 to 100 nM
NC(=O)N1CC(CNc2cc(C(F)(F)F)nc3ccc(F)cc23)(c2ccc(F)cc2)C1 [Example 25, 3-(((6-Fluoro-2-(trifluoromethyl)quinolin-4-yl)amino)methyl)-3-(4-fluorophenyl)azetidine-1-carboxamide]	0.1 to 100 nM	0.1 to 100 nM	0.1 to 100 nM
FC(F)(F)c1cc(NCC2(c3ccccc3)CCOCC2)c2cc(Cl)ccc2n1 [Example 17, 6-Chloro-N-((4-phenyltetrahydro-2H-pyran-4-yl)methyl)-2-(trifluoromethyl)quinolin-4-amine]	0.1 to 100 nM	0.1 to 100 nM	0.1 to 100 nM
[2H]C([2H])([2H])NC(=O)N1CC(CNc2cc(C(F)(F)F)nc3ccc(Cl)cc23)(n2cc(F)cn2)C1 [Example 26, 3-(((6-Chloro-2-(trifluoromethyl)quinolin-4-yl)amino)methyl)-3-(4-fluoro-1H-pyrazol-1-yl)-N-(methyl-d3)azetidine-1-carboxamide]	0.1 to 100 nM	0.1 to 100 nM	0.1 to 100 nM
NS(=O)(=O)N1CC(CNc2cc(C(F)(F)C(F)(F)F)nc3ccc(Cl)cc23)(c2ccc(F)cc2)C1 [Example 4, 3-(((6-Chloro-2-(perfluoroethyl)quinolin-4-yl)amino)methyl)-3-(4-fluorophenyl)azetidine-1-sulfonamide]	0.1 to 100 nM	0.1 to 100 nM	0.1 to 100 nM
NS(=O)(=O)N1CC(CNc2cc(C(F)(F)F)nc3ccc(C(F)(F)F)cc23)(c2ccc(F)cc2)C1 [Example 1, 3-(((2,6-Bis(trifluoromethyl)quinolin-4-yl)amino)methyl)-3-(4 fluorophenyl)azetidine-1-sulfonamide]	0.1 to 100 nM	0.1 to 100 nM	0.1 to 100 nM
O=C1CCC(CNc2cc(C(F)(F)F)nc3ccc(Cl)cc23)(c2ccccc2)N1 (stereo not drawn) [Example 45, 5-(((6-Chloro-2-(trifluoromethyl)quinolin-4-yl)amino)methyl)-5-phenylpyrrolidin-2-one]	0.1 to 100 nM	0.1 to 100 nM	0.1 to 100 nM
NS(=O)(=O)N1CC(CNc2cc(C(F)(F)F)nc3ccc(Br)cc23)(c2ccc(F)cc2)C1 [Example 3, 3-(((6-Bromo-2-(trifluoromethyl)quinolin-4-yl)amino)methyl)-3-(4-fluorophenyl)azetidine-1-sulfonamide]	0.1 to 100 nM	0.1 to 100 nM	0.1 to 100 nM
NS(=O)(=O)N1CC(CNc2cc(C(F)(F)F)nc3ccc(F)cc23)(n2cc(F)cn2)C1 [Example 10, 3-(4-Fluoro-1H-pyrazol-1-yl)-3-(((6-fluoro-2-(trifluoromethyl)quinolin-4-yl)amino)methyl)azetidine-1-sulfonamide]	0.1 to 100 nM	0.1 to 100 nM	0.1 to 100 nM
O=C(NC1CC(F)(F)C1)N1CC(CNc2cc(C(F)(F)F)nc3ccc(Cl)cc23)(n2cc(F)cn2)C1 [Example 22, 3-(((6-Chloro-2-(trifluoromethyl)quinolin-4-yl)amino)methyl)-N-(3,3-difluorocyclobutyl)-3-(4-fluoro-1H-pyrazol-1-yl)azetidine-1-carboxamide]	0.1 to 100 nM	0.1 to 100 nM	0.1 to 100 nM
CNC(=O)N1CCC(CNc2cc(C(F)(F)F)nc3ccc(Cl)cc23)(c2ccccc2)C1 (stereo not drawn) [Example 14, 3-(((6-Chloro-2-(trifluoromethyl)quinolin-4-yl)amino)methyl)-N-methyl-3-phenylpyrrolidine-1-carboxamide]	0.1 to 100 nM	0.1 to 100 nM	0.1 to 100 nM
